The values below come from patent US9174997B2, “4-(4-cyano-2-thioaryl)dihydropyrimidinones and use thereof” (Bayer Intellectual Property GmbH, priority 2007, dated 2015).

In series [1] the target is human neutrophil elastase (HNE) (Homo sapiens (Human), UniProt P08246). Nature of the series: In vitro HNE inhibition assay. The format is biochemical. Conditions: HNE concentration of 80 pM; substrate MeOSuc-Ala-Ala-Pro-Val-AMC; 37° C. for 2 hours. On the procedure:
B-1. In Vitro HNE Inhibition Assay
The potency of the compounds of the invention is ascertained in an in vitro inhibition assay. The HNE-mediated amidolytic cleavage of a suitable peptide substrate leads in this connection to an increase in the fluorescent light. The signal intensity of the fluorescent light is directly proportional to the enzyme activity.
Enzyme ([…]; from Serva, Heidelberg) and substrate (20 μM MeOSuc-Ala-Ala-Pro-Val-AMC; from Bachem, Weil am Rhein) are incubated in an assay volume of in total 50 μl of assay buffer (0.1 M HEPES pH 7.4, 0.5 M NaCl, 0.1% w/v BSA, 1% v/v DMSO) in a 384-well microtiter plate in the presence and absence of the test substance at 37° C. for 2 hours. […] The IC50 values are determined by plotting the intensity of the fluorescent light against the active substance concentration.

For a further series, the system named is rat hepatocytes. Nature of the series: Hepatocyte assay to determine the metabolic stability. The format is in vitro ADME. Conditions: after incubation with rat hepatocytes. As to the method: B-6. Hepatocyte Assay to Determine the Metabolic Stability
The metabolic stability of test compounds in the presence of hepatocytes is determined by incubating the compounds with low concentrations (preferably below or around 1 μM) and with low cell counts (preferably 1*10^6 cells/ml) in order to ensure as far as possible linear kinetic conditions in the experiment. Seven samples of the incubation solution are taken in a fixed time pattern for the […] analysis in order to determine the half-life (i.e. the degradation) of the compound in each case. Various clearance parameters (CL) and Fmax values are calculated from this half-life (see below).
The Cl and Fmax values represent a measure of the phase 1 and phase 2 metabolism of the compounds in the hepatocytes. In order to minimize the influence of the organic solvent on the enzymes in the incubation mixtures, this concentration is generally limited to 1% (acetonitrile) or 0.1% (DMSO).
A cell count for hepatocytes in the liver of 1.1*10^8 cells/g of liver is used for calculation for all species and breeds.
The calculated parameters and their meaning are:
Representative values for the compounds according to the invention from this assay after incubation of the compounds with rat hepatocytes are shown in Table B below: […]

Where only a bound is given, the exact number is not on record here.

Chain of human neutrophil elastase (HNE) (P08246 30-267): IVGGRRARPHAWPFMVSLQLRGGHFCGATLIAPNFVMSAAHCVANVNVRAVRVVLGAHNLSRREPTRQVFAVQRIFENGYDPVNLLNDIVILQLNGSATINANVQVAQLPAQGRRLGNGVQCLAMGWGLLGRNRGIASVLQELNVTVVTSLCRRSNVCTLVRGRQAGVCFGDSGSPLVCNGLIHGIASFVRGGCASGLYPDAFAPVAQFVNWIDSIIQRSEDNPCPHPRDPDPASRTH

As for `CC1=C(C#N)C(c2ccc(C#N)cc2S(=O)(=O)CCO)NC(=O)N1c1cccc(C(F)(F)F)c1` (racemic) [Example 132, (rac)-4-[4-Cyano-2-((2-hydroxyethyl)sulfonyl)phenyl]-6-methyl-2-oxo-1-[3-(trifluoromethyl)phenyl]-1,2,3,4-tetrahydropyrimidine-5-carbonitrile], it took 1100 pM to reach half-maximal inhibition in series [1] (IC50).
For the compound `[C-]#[N+]C1=C(C)N(c2cccc(C(F)(F)F)c2)C(=O)N[C@@H]1c1ccc(C#N)cc1[S@+](C)[O-]` (single isomer, unassigned; diastereomer 1) [Example 43 (Diastereomer 1)], in the series with rat hepatocytes, the “CLblood, calculated blood clearance (well stirred model)” value (“CLblood, calculated blood clearance” below) was 21.7 mL/min/kg and the “Fmax, maximum possible bioavailability after oral administration (well-stirred)” value (shortened to “Fmax, maximum possible bioavailability”) turned out to be 69%. This compound showed an IC50 in series [1] of 300 pM.
Turning to `CC1=C(C#N)[C@@H](c2ccc(C#N)cc2S(C)(=O)=O)N(C(=O)OCc2ccccc2)C(=O)N1c1cccc(C(F)(F)F)c1` (stereo in doubt) [Example 120, Benzyl 5-cyano-6-[4-cyano-2-(methylsulfonyl)phenyl]-4-methyl-2-oxo-3-[3-(trifluoromethyl)phenyl]-3,6-dihydropyrimidine-1(2H)-carboxylate], the 50% inhibitory concentration (IC50) in series [1] is below 300 pM.
`CC(=O)C1=C(C)N(c2cccc(C(F)(F)F)c2)C(=O)N[C@@H]1c1ccc(C#N)cc1S(C)(=O)=O` [Example 2, 4-{(4S)-5-Acetyl-6-methyl-2-oxo-1-[3-(trifluoromethyl)phenyl]-1,2,3,4-tetrahydropyrimidin-4-yl}-3-(methylsulfonyl)benzonitrile] had a concentration for half-maximal inhibition (IC50) in series [1] of 10000 pM.
As for `CC1=C(C#N)[C@@H](c2ccc(C#N)cc2S(C)(=O)=O)N(C(=O)NCCO)C(=O)N1c1cccc(C(F)(F)F)c1` [Example 10, (6S)-5-Cyano-6-[4-cyano-2-(methylsulfonyl)phenyl]-N-(2-hydroxyethyl)-4-methyl-2-oxo-3-[3-(trifluoromethyl)phenyl]-3,6-dihydropyrimidine-1(2H)-carboxamide], in the series on rat hepatocytes, the “CLblood, calculated blood clearance” value was 25 mL/min/kg and the “Fmax, maximum possible bioavailability” value is 65%. The half-maximal inhibitory concentration (IC50) in series [1] was below 300 pM.
On to `CC1=C(C#N)[C@@H](c2ccc(C#N)cc2S(C)(=O)=O)N(C(=O)NN(CCO)CCO)C(=O)N1c1cccc(C(F)(F)F)c1` [Example 12, (6S)-5-Cyano-6-[4-cyano-2-(methylsulfonyl)phenyl]-N′,N′-bis(2-hydroxyethyl)-4-methyl-2-oxo-3-[3-(trifluoromethyl)phenyl]-3,6-dihydropyrimidine-1(2H)-carbohydrazide], for which, in the series on rat hepatocytes, the “CLblood, calculated blood clearance” value is 28.3 mL/min/kg and the “Fmax, maximum possible bioavailability” value turned out to be 59%. This compound also showed an IC50 in series [1] below 300 pM.
With `CC1=C(C#N)[C@@H](c2ccc(C#N)cc2S(C)(=O)=O)N(C(=O)NCCOCCO)C(=O)N1c1cccc(C(F)(F)F)c1` [Example 14, (6S)-5-Cyano-6-[4-cyano-2-(methylsulfonyl)phenyl]-N-[2-(2-hydroxyethoxy)ethyl]-4-methyl-2-oxo-3-[3-(trifluoromethyl)phenyl]-3,6-dihydropyrimidine-1(2H)-carboxamide], the IC50 in series [1] was below 300 pM.
In series [1], `CC1=C(C#N)[C@@H](c2ccc(C#N)cc2S(C)(=O)=O)N(C(=O)N2CC[C@H](O)C2)C(=O)N1c1cccc(C(F)(F)F)c1` [Example 18, (4S)-4-[4-Cyano-2-(methylsulfonyl)phenyl]-3-{[(3S)-3-hydroxypyrrolidin-1-yl]carbonyl}-6-methyl-2-oxo-1-[3-(trifluoromethyl)phenyl]-1,2,3,4-tetrahydropyrimidine-5-carbonitrile] yielded an IC50 below 300 pM.
`CC1=C(C#N)[C@@H](c2ccc(C#N)cc2S(C)(=O)=O)N(C(=O)N2CCN(CCO)CC2)C(=O)N1c1cccc(C(F)(F)F)c1` [Example 20, (4S)-4-[4-Cyano-2-(methylsulfonyl)phenyl]-3-{[4-(2-hydroxyethyl)piperazin-1-yl]carbonyl}-6-methyl-2-oxo-1-[3-(trifluoromethyl)phenyl]-1,2,3,4-tetrahydropyrimidine-5-carbonitrile]: the IC50 in series [1] worked out at 1900 pM.
As to `CC1=C(C#N)[C@@H](c2ccc(C#N)cc2S(C)(=O)=O)N(CC(N)=O)C(=O)N1c1cccc(C(F)(F)F)c1` [Example 22, 2-[(6S)-5-Cyano-6-[4-cyano-2-(methylsulfonyl)phenyl]-4-methyl-2-oxo-3-[3-(trifluoromethyl)phenyl]-3,6-dihydropyrimidin-1(2H)-yl]acetamide], in the series on rat hepatocytes, the “CLblood, calculated blood clearance” value was 3.3 mL/min/kg and the “Fmax, maximum possible bioavailability” value worked out at 95%. The compound also showed a concentration for half-maximal inhibition (IC50) in series [1] of 450 pM.
On the same counts, the results for `CC1=C(C#N)[C@@H](c2ccc(C#N)cc2S(C)(=O)=O)N(S(C)(=O)=O)C(=O)N1c1cccc(C(F)(F)F)c1` [Example 27, (4S)-4-[4-Cyano-2-(methylsulfonyl)phenyl]-6-methyl-3-(methylsulfonyl)-2-oxo-1-[3-(trifluoromethyl)phenyl]-1,2,3,4-tetrahydropyrimidine-5-carbonitrile] are 6.7 mL/min/kg, 91% and below 300 pM.
Take `CC1=C(C#N)[C@@H](c2ccc(C#N)cc2S(C)(=O)=O)N(S(=O)(=O)C2CC2)C(=O)N1c1cccc(C(F)(F)F)c1` [Example 32, (4S)-4-[4-Cyano-2-(methylsulfonyl)phenyl]-6-methyl-3-(cyclopropylsulfonyl)-2-oxo-1-[3-(trifluoromethyl)phenyl]-1,2,3,4-tetrahydropyrimidine-5-carbonitrile]: in the series on rat hepatocytes, the “CLblood, calculated blood clearance” value was 1.7 mL/min/kg and the “Fmax, maximum possible bioavailability” value is given as 97%. The compound also returned a half-inhibitory concentration (IC50) in series [1] below 300 pM.
For `CN1CC2=C(C1=O)[C@@H](c1ccc(C#N)cc1S(C)(=O)=O)N(S(C)(=O)=O)C(=O)N2c1cccc(C(F)(F)F)c1` [Example 36, 4-{(4S)-6-Methyl-3-(methylsulfonyl)-2,5-dioxo-1-[3-(trifluoromethyl)phenyl]-2,3,4,5,6,7-hexahydro-1H-pyrrolo[3,4-d]pyrimidin-4-yl}-3-(methylsulfonyl)benzonitrile], in the series on rat hepatocytes, the “CLblood, calculated blood clearance” value is 6.7 mL/min/kg and the “Fmax, maximum possible bioavailability” value is on record as 89%. The 50% inhibitory concentration (IC50) in series [1] is below 300 pM.
`CSc1cc(C#N)ccc1[C@H]1NC(=O)N(c2cccc(C(F)(F)F)c2)C(C)=C1C#N` [Example 41, (4S)-4-[4-Cyano-2-(methylsulfanyl)phenyl]-6-methyl-2-oxo-1-[3-(trifluoromethyl)phenyl]-1,2,3,4-tetrahydropyrimidine-5-carbonitrile]: the IC50 in series [1] was below 300 pM.
In turn, `CC1=C(C#N)[C@@H](c2ccc(C#N)cc2S(C)(=O)=O)N(C(=O)N2CC(O)C2)C(=O)N1c1cccc(C(F)(F)F)c1` [Example 51, (4S)-4-[4-Cyano-2-(methylsulfonyl)phenyl]-3-[(3-hydroxyazetidin-1-yl)carbonyl]-6-methyl-2-oxo-1-[3-(trifluoromethyl)phenyl]-1,2,3,4-tetrahydropyrimidine-5-carbonitrile] displayed an IC50 in series [1] below 300 pM.
In series [1], `CC1=C(C#N)[C@@H](c2ccc(C#N)cc2S(C)(=O)=O)N(C(=O)N2CCC[C@@H](N)C2)C(=O)N1c1cccc(C(F)(F)F)c1` [Example 55, (4S)-3-[(3R)-3-Aminopiperidin-1-yl]carbonyl-4-[4-cyano-2-(methylsulfonyl)phenyl]-6-methyl-2-oxo-1-[3-(trifluoromethyl)phenyl]-1,2,3,4-tetrahydropyrimidine-5-carbonitrile] gave a 50% inhibitory concentration (IC50) below 300 pM.
Still for that read-out and setting: in the case of `CC1=C(C#N)[C@@H](c2ccc(C#N)cc2S(C)(=O)=O)N(C(=O)N2CCN(c3ccccn3)CC2)C(=O)N1c1cccc(C(F)(F)F)c1` [Example 69] it was 900 pM; in that of `CC1=C(C#N)[C@@H](c2ccc(C#N)cc2S(C)(=O)=O)N(C(=O)N(CC(C)O)CC(C)O)C(=O)N1c1cccc(C(F)(F)F)c1` (stereo partly drawn) [Example 80], below 300 pM.
Still for that read-out and setting: in the case of `CC1=C(C#N)[C@@H](c2ccc(C#N)cc2S(C)(=O)=O)N(C(=O)NC(C)(C)CO)C(=O)N1c1cccc(C(F)(F)F)c1` [Example 85] it was below 300 pM; in that of `CC1=C(C#N)[C@@H](c2ccc(C#N)cc2S(C)(=O)=O)N(S(=O)(=O)c2cnn(C(F)F)c2C)C(=O)N1c1cccc(C(F)(F)F)c1` [Example 96], below 300 pM; in that of `CC1=C(C#N)[C@@H](c2ccc(C#N)cc2S(C)(=O)=O)N(S(=O)(=O)c2ccccc2C#N)C(=O)N1c1cccc(C(F)(F)F)c1` [Example 103], below 300 pM.
The same measure, in the same setting: in the case of `CC1=C(C#N)[C@@H](c2ccc(C#N)cc2S(=O)(=O)c2ccccc2)NC(=O)N1c1cccc(C(F)(F)F)c1` [Example 141, (4S)-4-{4-Cyano-2-[phenylsulfonyl]phenyl}-6-methyl-2-oxo-1-[3-(trifluoromethyl)phenyl]-1,2,3,4-tetrahydropyrimidine-5-carbonitrile] it was below 300 pM.
